Experimental data as given in ChEMBL document CHEMBL1138174, “Novel HIV-1 integrase inhibitors derived from quinolone antibiotics” (J Med Chem, 2006).

How the values were obtained:
[1] = system: MT4; assay: Cytotoxic activity against human MT4 cells infected with HIV1 by MTT assay; format: functional
[2] = biological target: Human immunodeficiency virus type 1 integrase (Human immunodeficiency virus 1, UniProt Q7ZJM1); assay: Inhibition of recombinant HIV1 integrase strand transfer activity
[3] = system: MT4; assay: Antiviral activity against HIV1 3b in human MT4 cells; format: functional, cell-based

Chain of Human immunodeficiency virus type 1 integrase (Q7ZJM1 whole entry): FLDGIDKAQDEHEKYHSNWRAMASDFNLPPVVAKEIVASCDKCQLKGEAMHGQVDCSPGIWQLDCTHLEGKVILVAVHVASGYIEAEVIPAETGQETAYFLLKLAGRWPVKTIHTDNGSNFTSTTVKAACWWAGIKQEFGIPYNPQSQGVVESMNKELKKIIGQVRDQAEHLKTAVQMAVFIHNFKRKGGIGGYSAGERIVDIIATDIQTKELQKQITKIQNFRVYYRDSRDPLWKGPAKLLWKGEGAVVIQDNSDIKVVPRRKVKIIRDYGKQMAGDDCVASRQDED

O=C(O)c1cn(CCO)c2ccc(Cc3cccc(Cl)c3F)cc2c1=O
Activity [1]: >15 µM
IC50 [2]: 24.2 nM
EC50 [3]: 76.3 nM

COc1cc2c(cc1Cc1cccc(Cl)c1F)c(=O)c(C(=O)O)cn2[C@H](CO)C(C)C
Activity [1]: 4 µM
EC50 [3]: 0.9 nM

COc1cc2c(cc1Cc1cccc(Cl)c1F)c(=O)c(C(=O)O)cn2CCO
Activity [1]: 5.3 µM
IC50 [2]: 9.1 nM
EC50 [3]: 17.1 nM

O=C(NCc1ccc(F)cc1)c1nc(N2CCCCS2(=O)=O)c2cccnc2c1O
Activity [1]: 0.7 µM
IC50 [2]: 22.8 nM
EC50 [3]: 3.6 nM

O=C(O)c1c[nH]c2ccc(Cc3cccc(Cl)c3F)cc2c1=O
Activity [1]: >12 µM
IC50 [2]: 43.5 nM
EC50 [3]: 805 nM

CC(C)[C@@H](CO)n1cc(C(=O)O)c(=O)c2cc(Cc3cccc(Cl)c3F)ccc21
Activity [1]: 14 µM
EC50 [3]: 7.5 nM

O=C(O)c1cnc2ccc(Cc3ccccc3)cc2c1O
Activity [1]: >30 µM
IC50 [2]: 1600 nM
EC50 [3]: > 30000 nM
